US20190054022A1, “FORMULATIONS OF SITE-SPECIFIC, MICROPARTICULATE COMPOSITIONS AND THEIR USE TO IMPROVE OUTCOME AFTER ANEURSYMAL SUBARACHNOID HEMORRHAGE” (Edge Therapeutics, Inc., priority 2016, published 2019)
Where two headings read alike, the source gives them in different places.

Experiments:
R-type calcium current = biological target: T1, R-type calcium current (Rattus norvegicus, UniProt Q07652); settings: at 40 nM concentration; cited from earlier work
T1 construct: R-type calcium current in the neurohypophysial nerve endings at 40 nM concentration; host or cells: neurohypophysial nerve endings

N-type calcium current = N-type calcium current (Homo sapiens, UniProt Q00975); settings: at 300 nM to 500 nM; cited from earlier work
[1] = system: K+ and Na+ currents, and L, P/Q and T-type calcium currents; settings: cited from earlier work
[2] = system: patients with SAH secured by endovascular coiling; settings: cited from earlier work; for patients with primary end point: placebo 27%; for patients with poor outcome (extended Glasgow Outcome Scale score <1=4): placebo 24%
[3] = system: patients with SAH secured by surgical clipping; settings: cited from earlier work
[4] = system: patients with aneurysmal SAH; settings: in vivo; cited from earlier work
[5] = system: double hemorrhage dog model of SAH; experiment: Mongrel dog SAH study: behavior, blood pressure, microthrombi, neuronal injury; type: in vivo, mongrel dogs; settings: placebo microparticle plus oral nimodipine
Method: Blood was injected into the cisterna magna using the same procedure as on day 1 except that microparticles were not injected. Angiography was repeated on days 8 and 15. The diameter of the basilar artery was measured at 5 equally spaced points by two blinded observers and the means averaged. Angiographic vasospasm was assessed by comparing the diameters of basilar arteries from Days 1, 8 and 15 and the time course and severity of angiographic vasospasm was determined. Dogs were weighed weekly and examined daily for 14 days, including behavior examination [Zhou C, Yamaguchi […], Zhang J H. Role of p53 and apoptosis in cerebral vasospasm after experimental subarachnoid hemorrhage. J Cereb Blood Flow Metab 2005; 25:572-82.]. […] Indirect blood pressure was measured in awake dogs daily for the first 14 days and weekly thereafter. Dogs were euthanized by an intravenous overdose of sodium pentobarbital. They were perfused through the heart with PBS followed by 10% neutral buffered formalin. […] Neuronal degeneration and apoptosis were scored by a pathologist blinded to the assigned group on a semi-quantitative scale as normal, minimal, mild, moderate or severe. Microthrombi present in three (3) 100×100 μm fields were counted.

[6] = Mongrel dog SAH study: plasma and CSF nimodipine concentration; type: in vivo, mongrel dogs; settings: oral 5.2 mg/kg daily, day 3 (highest), n=7
[7] = oral, total single day dose of 360 mg; cited from earlier work
[8] = system: double hemorrhage dog model of SAH; experiment: Mongrel dog SAH efficacy study: angiographic vasospasm (basilar artery diameter); type: in vivo, mongrel dogs
Method: Dose translation from animal to human studies revisited. […] Dogs were euthanized on day 28 or 49. Dogs were anesthetized as described above, blood was collected and blood pressure, temperature, heart rate and oxygen saturation were monitored continuously while animals were under anesthesia. Blood gases were obtained before and after the injections. Cerebral angiography was performed through a 4F catheter inserted into the femoral artery and advanced under fluoroscopic guidance into the proximal portion of one vertebral artery using a guide wire. […] Images were captured digitally using identical exposure factors and magnification and an internal magnification standard was included in every angiogram. […] One half of the blood was injected, followed by injection of microparticles and then the remaining blood. The needle was withdrawn and the dogs were kept 30° head down for 15 minutes after which the femoral catheter was removed, the artery was ligated, and the incision was closed. For […] injection, the blood was injected into the cisterna magna and then the dog was placed prone in a stereotactic unit. […] Blood was injected into the cisterna magna using the same procedure as on day 1 except that microparticles were not injected. Angiography was repeated on days 8 and 15. The diameter of the basilar artery was measured at 5 equally spaced points by two blinded observers and the means averaged. Angiographic vasospasm was assessed by comparing the diameters of basilar arteries from Days 1, 8 and 15 and the time course and severity of angiographic vasospasm was determined. Dogs were weighed weekly and examined daily for 14 days, including behavior examination [Zhou C, Yamaguchi […], Zhang J H. Role of p53 and apoptosis in cerebral vasospasm after experimental subarachnoid hemorrhage. J Cereb Blood Flow Metab 2005; 25:572-82.]. […] Indirect blood pressure was measured in awake dogs daily for the first 14 days and weekly thereafter.

[9] = Nimodipine release in vivo: plasma concentration after subcutaneous injection; design: species or system Wistar rats; settings: 20 mg/kg or 200 mg/kg
Method: A mobile phase of water:methyl alcohol:tetrahydrofuran was used (60:20:20) at 2 mL/min with detection at 235 nm.
Blood samples were collected from two alternating cohorts of 2 or 3 animals/cohort in the microparticle formulation-injected groups. Collection was immediately before injection and then 1, 12, and 24 hours post dose, and on days 4, 8, 11, and 15. After the last blood sample collection interval, the surviving animals were euthanized via carbon dioxide inhalation. Animals were euthanized by cervical dislocation and the carcasses were discarded.

[10] = placebo microparticles + oral nimodipine 5.2 mg/kg daily for 21 days, n = 8

Chain of N-type calcium current (Q00975 whole entry): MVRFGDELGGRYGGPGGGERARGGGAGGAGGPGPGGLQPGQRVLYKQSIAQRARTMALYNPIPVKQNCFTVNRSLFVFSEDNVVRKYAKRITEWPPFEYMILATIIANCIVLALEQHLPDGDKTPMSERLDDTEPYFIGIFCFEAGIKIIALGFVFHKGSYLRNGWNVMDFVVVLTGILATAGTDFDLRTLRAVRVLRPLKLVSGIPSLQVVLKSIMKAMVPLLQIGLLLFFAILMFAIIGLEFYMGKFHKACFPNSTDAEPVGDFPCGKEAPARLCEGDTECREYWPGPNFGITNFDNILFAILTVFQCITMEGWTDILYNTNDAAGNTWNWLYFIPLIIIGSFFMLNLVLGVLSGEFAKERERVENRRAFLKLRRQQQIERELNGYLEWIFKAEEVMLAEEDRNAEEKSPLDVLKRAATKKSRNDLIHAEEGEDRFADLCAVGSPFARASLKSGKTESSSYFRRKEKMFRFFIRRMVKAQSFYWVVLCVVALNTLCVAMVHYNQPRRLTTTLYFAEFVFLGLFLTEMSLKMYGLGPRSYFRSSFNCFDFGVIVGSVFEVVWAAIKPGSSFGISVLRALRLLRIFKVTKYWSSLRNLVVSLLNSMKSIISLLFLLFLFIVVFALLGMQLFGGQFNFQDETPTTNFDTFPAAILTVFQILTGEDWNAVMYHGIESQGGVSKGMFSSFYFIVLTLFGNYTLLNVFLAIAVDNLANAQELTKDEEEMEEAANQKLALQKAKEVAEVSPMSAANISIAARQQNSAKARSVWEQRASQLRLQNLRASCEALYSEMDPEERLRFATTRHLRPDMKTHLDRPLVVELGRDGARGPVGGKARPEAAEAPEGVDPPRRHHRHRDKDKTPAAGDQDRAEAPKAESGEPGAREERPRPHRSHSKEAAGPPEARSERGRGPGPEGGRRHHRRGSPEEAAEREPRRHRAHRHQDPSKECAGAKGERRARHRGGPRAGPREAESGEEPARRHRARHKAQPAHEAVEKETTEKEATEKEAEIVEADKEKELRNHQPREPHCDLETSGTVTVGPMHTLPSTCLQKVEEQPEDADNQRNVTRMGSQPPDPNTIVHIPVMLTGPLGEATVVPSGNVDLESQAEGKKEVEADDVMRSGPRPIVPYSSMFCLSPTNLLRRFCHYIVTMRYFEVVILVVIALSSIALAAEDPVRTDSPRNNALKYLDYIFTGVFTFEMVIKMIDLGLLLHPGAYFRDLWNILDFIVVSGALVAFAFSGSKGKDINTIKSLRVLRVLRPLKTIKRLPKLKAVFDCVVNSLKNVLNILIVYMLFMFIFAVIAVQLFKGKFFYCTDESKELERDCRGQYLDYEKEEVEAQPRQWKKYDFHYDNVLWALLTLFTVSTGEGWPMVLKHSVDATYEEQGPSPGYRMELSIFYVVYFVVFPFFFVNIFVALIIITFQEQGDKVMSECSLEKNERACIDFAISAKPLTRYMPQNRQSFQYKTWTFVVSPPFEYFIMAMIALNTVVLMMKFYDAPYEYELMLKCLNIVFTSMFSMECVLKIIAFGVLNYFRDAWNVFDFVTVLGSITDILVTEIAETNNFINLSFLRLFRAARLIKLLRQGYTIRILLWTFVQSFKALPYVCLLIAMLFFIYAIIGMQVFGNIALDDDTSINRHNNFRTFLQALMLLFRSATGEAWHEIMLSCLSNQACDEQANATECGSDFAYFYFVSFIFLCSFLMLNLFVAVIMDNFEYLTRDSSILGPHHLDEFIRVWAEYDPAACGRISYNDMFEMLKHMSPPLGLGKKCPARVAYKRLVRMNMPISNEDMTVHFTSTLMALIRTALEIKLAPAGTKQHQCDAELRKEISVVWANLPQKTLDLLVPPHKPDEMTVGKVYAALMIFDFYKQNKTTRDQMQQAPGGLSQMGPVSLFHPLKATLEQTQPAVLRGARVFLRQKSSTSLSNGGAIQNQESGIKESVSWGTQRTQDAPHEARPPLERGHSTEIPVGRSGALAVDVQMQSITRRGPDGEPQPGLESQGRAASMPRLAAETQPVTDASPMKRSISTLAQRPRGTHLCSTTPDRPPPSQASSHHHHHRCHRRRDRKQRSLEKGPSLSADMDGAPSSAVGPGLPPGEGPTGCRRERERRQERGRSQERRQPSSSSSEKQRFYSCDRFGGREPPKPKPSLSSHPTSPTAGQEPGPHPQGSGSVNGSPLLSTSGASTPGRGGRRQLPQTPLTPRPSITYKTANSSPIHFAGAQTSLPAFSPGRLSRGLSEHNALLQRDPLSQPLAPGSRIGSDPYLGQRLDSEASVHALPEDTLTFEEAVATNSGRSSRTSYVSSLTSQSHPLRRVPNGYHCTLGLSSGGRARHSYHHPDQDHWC
T1 sequence (Q07652 whole entry): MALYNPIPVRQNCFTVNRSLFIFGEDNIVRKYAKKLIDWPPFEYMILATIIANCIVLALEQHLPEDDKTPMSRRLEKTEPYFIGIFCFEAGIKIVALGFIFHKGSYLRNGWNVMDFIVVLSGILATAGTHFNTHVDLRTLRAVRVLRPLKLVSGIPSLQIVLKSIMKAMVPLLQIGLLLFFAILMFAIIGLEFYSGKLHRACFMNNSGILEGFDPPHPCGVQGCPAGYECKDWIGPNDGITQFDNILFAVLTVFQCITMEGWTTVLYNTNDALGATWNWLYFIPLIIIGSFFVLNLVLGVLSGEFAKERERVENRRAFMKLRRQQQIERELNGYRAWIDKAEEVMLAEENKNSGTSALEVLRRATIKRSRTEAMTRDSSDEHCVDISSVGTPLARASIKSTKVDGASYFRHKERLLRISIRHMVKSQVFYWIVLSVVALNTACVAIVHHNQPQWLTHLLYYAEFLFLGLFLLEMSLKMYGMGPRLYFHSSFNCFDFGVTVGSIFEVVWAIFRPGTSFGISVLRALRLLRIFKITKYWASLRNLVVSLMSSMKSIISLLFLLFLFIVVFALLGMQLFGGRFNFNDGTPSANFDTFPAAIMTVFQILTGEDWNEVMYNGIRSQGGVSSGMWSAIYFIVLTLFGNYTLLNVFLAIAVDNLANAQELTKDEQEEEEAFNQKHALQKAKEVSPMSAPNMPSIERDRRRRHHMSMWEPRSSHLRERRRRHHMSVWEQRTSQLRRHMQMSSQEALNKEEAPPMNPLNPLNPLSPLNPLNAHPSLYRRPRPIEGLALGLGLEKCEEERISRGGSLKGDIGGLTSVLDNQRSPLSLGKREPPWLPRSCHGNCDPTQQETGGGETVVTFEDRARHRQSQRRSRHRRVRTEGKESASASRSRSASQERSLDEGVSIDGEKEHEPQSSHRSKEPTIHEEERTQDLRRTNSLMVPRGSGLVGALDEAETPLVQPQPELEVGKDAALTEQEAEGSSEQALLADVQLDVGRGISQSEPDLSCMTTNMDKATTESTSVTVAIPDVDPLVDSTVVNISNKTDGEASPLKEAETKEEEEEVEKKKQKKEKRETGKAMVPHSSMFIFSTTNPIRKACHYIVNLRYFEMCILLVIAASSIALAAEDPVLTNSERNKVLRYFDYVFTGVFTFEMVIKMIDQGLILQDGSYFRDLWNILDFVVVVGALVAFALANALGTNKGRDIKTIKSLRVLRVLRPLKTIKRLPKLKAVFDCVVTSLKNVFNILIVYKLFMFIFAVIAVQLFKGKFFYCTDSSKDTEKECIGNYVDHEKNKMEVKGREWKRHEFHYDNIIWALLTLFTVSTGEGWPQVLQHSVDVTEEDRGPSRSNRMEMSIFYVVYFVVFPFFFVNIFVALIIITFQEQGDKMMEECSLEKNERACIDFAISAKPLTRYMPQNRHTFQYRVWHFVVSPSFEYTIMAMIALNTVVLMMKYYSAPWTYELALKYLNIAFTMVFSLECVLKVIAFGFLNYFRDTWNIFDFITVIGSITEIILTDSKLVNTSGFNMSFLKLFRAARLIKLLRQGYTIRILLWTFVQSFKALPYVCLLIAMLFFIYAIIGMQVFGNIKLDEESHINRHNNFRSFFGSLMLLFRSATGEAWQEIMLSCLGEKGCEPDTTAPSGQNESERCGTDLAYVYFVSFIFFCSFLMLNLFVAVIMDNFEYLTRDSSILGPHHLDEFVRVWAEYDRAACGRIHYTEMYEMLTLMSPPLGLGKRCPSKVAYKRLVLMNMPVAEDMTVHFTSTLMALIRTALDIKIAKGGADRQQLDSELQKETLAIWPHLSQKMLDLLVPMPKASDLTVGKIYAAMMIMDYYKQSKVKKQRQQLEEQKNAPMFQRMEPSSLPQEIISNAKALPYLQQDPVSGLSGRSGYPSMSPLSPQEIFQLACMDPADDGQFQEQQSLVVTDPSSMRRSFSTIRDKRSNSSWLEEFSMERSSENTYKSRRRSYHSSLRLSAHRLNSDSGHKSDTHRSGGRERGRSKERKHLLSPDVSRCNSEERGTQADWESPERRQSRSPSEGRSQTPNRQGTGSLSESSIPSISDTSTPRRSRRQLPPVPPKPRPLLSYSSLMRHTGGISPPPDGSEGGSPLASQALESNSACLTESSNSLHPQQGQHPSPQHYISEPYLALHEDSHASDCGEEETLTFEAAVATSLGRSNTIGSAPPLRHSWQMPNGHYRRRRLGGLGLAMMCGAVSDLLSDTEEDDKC

Compound: SNX-482
- block of R-type calcium current (R-type calcium current): blocks
- block of N-type calcium current (N-type calcium current): 30-50%
- effect on other currents [1]: no effect is observed

Compound: COc1ccccc1Oc1c(NS(=O)(=O)c2ccc(C)cn2)nc(-c2ccnc(-c3nnn[nH]3)c2)nc1OCCO [clazosentan]
- patients with primary end point ([2]; 5 mg/h, 47/194): 24%
- odds ratio, primary end point ([2]; 5 mg/h, 95% CI 0.479-1.289, P=0.340): 0.786
- odds ratio, poor outcome ([2]; 5 mg/h, 95% CI 0.546-1.544, P=0.748): 0.918
- patients with poor outcome (extended Glasgow Outcome Scale score <1=4) ([2]; 5 mg/h): 25%
- patients with primary end point ([2]; 15 mg/h, 28/188): 15%
- odds ratio, primary end point ([2]; 15 mg/h, 95% CI 0.275-0.818, P=0.007): 0.474
- odds ratio, poor outcome ([2]; 15 mg/h, 95% CI 0.802-2.227, P=0.266): 1.337
- post aneurysmal SAH vasospasm-related morbidity/all-cause mortality ([2]; 15 mg/h): significantly reduced
- patients with poor outcome (extended Glasgow Outcome Scale score <1=4) ([2]; 15 mg/h): 28%
- adverse events versus placebo ([2]; 5 or 15 mg/h): Pulmonary complications, anemia, and hypotension were more common
- outcome (extended Glasgow Outcome Scale) ([2]; 5 or 15 mg/h): neither dose improved outcome
- patients meeting primary composite endpoint (week 6): all-cause mortality, vasospasm-related new cerebral infarcts, delayed ischemic neurological deficit, rescue therapy ([3]; 5 mg/h up to 14 days, 161 of 764, placebo 25%): 21%
- relative risk reduction, primary endpoint ([3]; 5 mg/h, 95% CI −4 to 33, p=0.10): 17%
- patients with poor functional outcome (GOSE score <1=4) ([3]; 5 mg/h, 224 patients, placebo 25%): 29%
- Mortality (week 12) ([3]; 5 mg/h, both groups): 6%
- adverse events versus placebo ([3]; 5 mg/h): Lung complications, anaemia, and hypotension were more common
- effect on mortality and vasospasm-related morbidity or functional outcome ([3]; 5 mg/h): no significant effect
- relative risk reduction, poor functional outcome ([3]; 5 mg/h, −45 to 4, p=0.10): −18%
- incidence of angiographic vasospasm after aneurysmal SAH [4]: significantly reduced the incidence of angiographic vasospasm

Compound: COCCOC(=O)C1=C(C)NC(C)=C(C(=O)OC(C)C)C1c1cccc([N+](=O)[O-])c1 (centres unmarked) [nimodipine, Isopropyl 2-methoxyethyl 1,4-dihydro-2,6-dimethyl-4-(m-nitrophenyl)-3,5-pyridinedicarboxylate]
- dogs with microthrombi [5]: one
- concentration of nimodipine in CSF [6]: 1.56 ± 1.17 ng/mL
- bioavailability [7]: about 28%
- % change compared to day 1, Day 8 [8, 10]: (−27.9 ± 3.0) %
- % change compared to day 1, Day 15 [8, 10]: (−11.7 ± 4.5) %
- Angiographic diameter of basilar artery (mm), Day 8 [8, 10]: 1.08 ± 0.12 mm
- Angiographic diameter of basilar artery (mm), Day 15 [8, 10]: 1.32 ± 0.17 mm
- Angiographic diameter of basilar artery (mm), Day 1 ([8]; placebo microparticles + oral nimodipine 5.2 mg/kg daily for 21 days, n = 8, baseline): 1.51 ± 0.13 mm
- basilar artery diameter 8 and 15 days after SAH versus day 1 ([8]; placebo microparticles with oral nimodipine, ANOVA P=0.001): significant reductions in basilar artery diameter
- release of nimodipine over time in vivo (plasma) [9]: Sustained release of nimodipine over time was observed
